The values below come from patent US8119589B2, “Modulation of CD4+ T cell responses by a tick saliva protein, Salp15 and polypeptides derived therefrom” (University of North Carolina at Charlotte, priority 2004, dated 2012).

Assay [1] concerns CD4+ T cells. The assay is described as follows: Lipid raft redistribution (CTB594 staining, receptor capping) in activated CD4+ T cells. The assay is classed as cell-based, mouse. Particulars: Salp15 treatment prior to anti-CD3/CD28 stimulation, murine cells. On the procedure:
Naïve CD4+ T cells from C3H/HeN, Balb/c, and B10.BR mice were purified as previously described (Anguita et al., 2002). CD4+ T cells were preincubated in Click's modified Bruff's Medium (Sigma Chemical Co., St. Louis, Mo., U.S.A.) for 10 minutes at 37° C. with and without Salp15 (50 μg/mL) and stimulated for 20 min or the indicated times at 37° C. with 10 μg/mL of anti-CD3ε, 1 μg/mL of anti-CD28, and 10 μg/mL of anti-armenian and syrian hamster IgG (BD Biosciences Pharmingen, San Jose, Calif., U.S.A.). Jurkat (E6-1) cells were stimulated using 5 μg/mL of OKT3 mAb (eBioscience, San Diego, Calif., U.S.A.) and 1 μg/mL of anti-human CD28 cross linked with 5 μg/mL anti-mouse IgG for the indicated times.
For the visualization of lipid rafts, phospho-tyrosine, and cytoskeleton reorganization, CD4^+, CD8^+ or Jurkat cells were cytospun for 10 minutes at 1000 RPM onto positively charged microslides (Fisher Scientific, Hampton, N.H., U.S.A.). The cells were fixed with 3.7% paraformaldehyde (Sigma Chemical Co.) for 15 minutes and stained with CTB594 (Molecular Probes, Eugene, Oreg., U.S.A.), AlexaFluor488 labeled phalloidin (Molecular Probes) or (1:50) biotin-conjugated anti-p-Tyr (PY99) followed by Streptavidin-AlexaFluor594 (1:100, Molecular Probes). For p-LAT and p-PLCγ1 staining, fixed cells were treated with PBS containing 0.1% Triton-X 100 and 100 mM glycine for 15 min at room temperature and stained using rabbit p-LAT (Tyr^191) or rabbit anti-p-PLCγ1 (Tyr^783) probed with anti-rabbit IgG488 (Molecular Probes).
For receptor capping studies, mouse primary B and CD11^+ cells were purified by positive selection using biotin anti-mouse CD45R/B220 clone RA3-6B2 and biotin anti-mouse CD11b clone M1/70 (BD Biosciences Pharmingen) respectively, followed by incubation with magnetic microbeads. The cells were analyzed for receptor capping using 25 μg/mL anti-mouse IgM and 25 μg/mL anti-mouse CD16/CD32 respectively, cross-linked with 25 μg/mL of anti-rat IgG594 for 10 min in the presence or absence of 50 μg/mL of Salp15. […]

For assay [2], the system named is B cells and macrophages. The experiment in a line: Receptor capping in B cells and macrophages (anti-IgM, anti-CD16/CD32 cross-linking). The settings on record: 50 μg/mL Salp15; anti-IgM and Fc engagement. Format: cell-based, mouse. How it is done: For receptor capping studies, mouse primary B and CD11^+ cells were purified by positive selection using biotin anti-mouse CD45R/B220 clone RA3-6B2 and biotin anti-mouse CD11b clone M1/70 (BD Biosciences Pharmingen) respectively, followed by incubation with magnetic microbeads. The cells were analyzed for receptor capping using 25 μg/mL anti-mouse IgM and 25 μg/mL anti-mouse CD16/CD32 respectively, cross-linked with 25 μg/mL of anti-rat IgG594 for 10 min in the presence or absence of 50 μg/mL of Salp15. CD4^+ and CD8^+ T cells were purified by negative selection and incubated with 10 μg/mL anti-CD3 and 1 μg/mL anti-CD28 cross-linked with 10 μg/mL of anti-hamster IgG488 for 10 min in the presence or absence of 50 μg/mL of Salp15.

Assay [3] concerns the target T1, CD4 on HeLa-CD4 cells (Homo sapiens, UniProt P01730).
T1 construct: host or cells: HeLa
The assay is described as follows: Salp15488 binding to HeLa-CD4 and HeLa cells (flow cytometry, confocal microscopy). How it is done: For colocalization experiments, Jurkat and CD4^+ T cells were cytospun as described herein. HeLa and HeLa-CD4 cells were grown on chamber slides. The cells were fixed and stained with anti-CD4 and Salp15 as follows. Purified Salp15 was labeled using Alexa-488 with the Protein Labeling Kit (Molecular Probes) according to the manufacturer's instructions. Fixed cells were blocked with 5% normal serum and anti-CD16/CD32 (1:100) in PBS, incubated with 1 μg of monoclonal biotinylated anti-CD4 (L3T4) (BD Biosciences Pharmingen) followed by streptavidin594 staining. The cells were then stained with 20 μg/mL of Salp15488. For competition assays, cells were first blocked with 5% normal serum, incubated with either polyclonal anti-CD4 antibody, MT310, OKT4, normal rabbit IgG, Salp15 (0.5 mg/mL) or lysozyme (0.5 mg/mL) followed by staining with Salp15488. All samples were mounted in a GVA Mount (Zymed, San Francisco, Calif., U.S.A.) and visualized with an Olympus Confocal microscope equipped with Fluoview 3.0 software.
Actin polymerization assay was performed as described earlier (Krishnan et al., 2004). […] The cells were washed, resuspended in PBS and analyzed for F-actin content on a FACSCalibur with CellQuest software (Beckton Dickinson, Mountain View, Calif., U.S.A.). […] The cells were washed twice with PBS and analyzed by flow cytometry.

Assay [4] has as its system splenic T cells from CD4-deficient mice and control T cells. The assay is described as follows: IL-2 production by anti-CD3/CD28 stimulated T cells from CD4-deficient and B6 mice. The settings on record: 50 μg/mL Salp15, 72 hrs. The assay is classed as cell-based, mouse. How it is done:
(§1) T-cells from CD4-deficient and B6 mice (The Jackson Laboratory, Bar Harbor, Me., U.S.A.) were purified by negative selection and activated for 72 hrs using 5 μg/ml of plate bound anti-CD3 and 1 μg/ml of anti-CD28 in the presence or absence of 50 μg/mL of Salp15. DO11.10 transgenic mouse (The Jackson Laboratory) CD4^+ T cells were purified by negative selection as before and incubated in the presence of 106/mL of syngeneic mitomycin C-treated (50 μg/ml for 40 min at 37° C.) antigen presenting cells (APCs) with 10 μg/mL of ovalbumin in the presence of 0.5, 5.0 and 50 μg/mL of Salp15 for 72 hrs. The supernatants were then collected and IL-2 measured by capture ELISA following the manufacturer's instruction (BD Biosciences Pharmingen).

Assay [5] concerns CD4+ T cells from DO11.10 transgenic mice. The experiment in a line: IL-2 production by DO11.10 transgenic CD4+ T cells activated with ovalbumin and APCs. The assay is classed as cell-based, mouse. Particulars: 0.5, 5.0 and 50 μg/mL Salp15; ovalbumin; 72 hrs. On the procedure: as §1

Consider “Salp15: secreted salivary protein from Ixodes scapularis, SEQ ID NO: 2; recombinant His-tagged, produced in Drosophila S2 cells”, for which the Lipid raft clustering entry in assay [1] is recorded as “reduced”. In addition, in assay [2], the “Lipid raft reorganization (receptor capping)” value is reported as “did not affect”. In addition, the “Salp15 binding on untransfected HeLa cells” value in assay [3] (confocal microscopy) was “but not in untransfected cells”. Further, the “Salp15 binding to HeLa-CD4 cells compared to non-transfected controls” value in assay [3] (flow cytometry) is listed as “increase”. The “Inhibition (immunosuppressive activity, IL-2)” value in assay [4] (T cells from CD4-negative mice) stood at 33%; in assay [4] (control T cells (B6 mice)), 85%. For the same substance, the “Inhibition of IL-2 production” value in assay [5] is reported as “dose dependent manner”.
